Data reported in ChEMBL document CHEMBL4024747, “Design, Synthesis, and Biological Activities of Vibsanin B Derivatives: A New Class of HSP90 C-Terminal Inhibitors” (J Med Chem, 2017).
pIC50: −log10 of the molar value. Activity calls are given as the source filed them. The calls are words filed in the database; no cut-off is given here.

Experiments:
Type in all cases: functional, cell-based
[1] = system: MCF7; experiment: Antiproliferative activity against human MCF7 cells assessed as reduction in cell viability after 48 hrs by MTT assay; conditions: MCF7, 48 h
[2] = system: SMMC-7721; experiment: Antiproliferative activity against human SMMC7721 cells assessed as reduction in cell viability after 48 hrs by MTT assay; conditions: for pIC50: SMMC-7721, 48 h
[3] = system: A549; experiment: Antiproliferative activity against human A549 cells assessed as reduction in cell viability after 48 hrs by MTT assay; conditions: for pIC50: A549, 48 h
[4] = system: HL-60; experiment: Antiproliferative activity against human HL60 cells assessed as reduction in cell viability after 48 hrs by MTT assay; conditions: for pIC50: HL-60, 48 h
[5] = system: SW480; experiment: Antiproliferative activity against human SW480 cells assessed as reduction in cell viability after 48 hrs by MTT assay; conditions: for pIC50: SW480, 48 h

Row | Compound | pIC50 [1] | pIC50 [2] | pIC50 [3] | pIC50 [4] | pIC50 [5] | Activity [2] | Activity [3] | Activity [4] | Activity [5]
1 | CC(C)=CCC[C@]1(C)/C=C/[C@@H](OC(=O)C=C(C)C)[C@](C)(O)/C=C/C(=O)/C(CN=[N+]=[N-])=C\C1 | 5.31 | 5.51 | 5.76 | 6.04 | 5.37 |  |  |  | 
2 | CC(C)=CCC[C@]1(C)/C=C/[C@@H](OC(=O)C=C(C)C)[C@](C)(O)/C=C/[C@H](O)/C(CO)=C\C1 | 4.48 | < 4.40 | < 4.40 | < 4.40 | < 4.40 |  |  |  | 
3 | CC(C)=CCC[C@]1(C)/C=C/[C@@H](OC(=O)C=C(C)C)[C@](C)(O)/C=C/C(=O)/C(CO[Si](C)(C)C(C)(C)C)=C\C1 | 5.22 | 5.40 | 5.38 | 5.56 | 5.47 |  |  |  | 
4 | CC(C)=CCC[C@]1(C)/C=C/[C@@H](OC(=O)C=C(C)C)[C@](C)(O)/C=C/C(=O)/C(CO[Si](c2ccccc2)(c2ccccc2)C(C)(C)C)=C\C1 | 4.80 | 4.42 | 4.89 | 4.84 | 4.68 |  |  |  | 
5 | CC(C)=CCC[C@]1(C)/C=C/[C@@H](OC(=O)C=C(C)C)[C@](C)(O)/C=C/C(=O)/C(CN(C(C)C)C(C)C)=C\C1 | 6.11 | 6.47 | 6.19 | 6.13 | 6.12 |  |  |  | 
6 | CC(C)=CCC[C@]1(C)/C=C/[C@@H](OC(=O)C=C(C)C)[C@](C)(O)/C=C/C(=O)/C(C=O)=C\C1 | 4.90 |  |  |  |  | Active | Active | Active | Active

Continued, in another order:

Row | pIC50 [1] | pIC50 [2] | pIC50 [3] | pIC50 [4] | pIC50 [5] | Compound | Activity [2] | Activity [3] | Activity [4] | Activity [5]
7 | 5.10 | 5.01 | 5.06 | 5.30 | 5.31 | CC(=O)O[C@@H]1/C=C/[C@@](C)(CCC=C(C)C)C/C=C(/CO)C(=O)/C=C/[C@@]1(C)O |  |  |  | 
8 | 5.38 | 4.96 | 5.40 | 5.51 | 5.41 | COC/C1=C/C[C@](C)(CCC=C(C)C)/C=C/[C@@H](OC(=O)C=C(C)C)[C@](C)(O)/C=C/C1=O |  |  |  | 
9 | 5.47 | 5.43 | 5.78 | 5.49 | 5.55 | CC(C)=CCC[C@]1(C)/C=C/[C@@H](OC(=O)C=C(C)C)[C@](C)(O)/C=C/C(=O)/C(C(=O)N2CCOCC2)=C\C1 |  |  |  | 
10 | 4.91 | 4.99 | 4.95 | 5.33 | 4.99 | CC(C)=CCC[C@](C)(/C=C/[C@@H](OC(=O)C=C(C)C)[C@](C)(O)/C=C/C(=O)/C=C/N(C)C)CC=O |  |  |  | 
11 | 5.05 | 5.51 | 5.58 | 5.97 | 4.91 | CC(C)=CCC[C@](C)(/C=C/[C@@H](OC(=O)C=C(C)C)[C@](C)(O)/C=C/C(=O)/C=C/N1CCN(C)CC1)CC=O |  |  |  | 
12 | 6.28 | 5.94 | 6.18 | 5.95 | 6.11 | CC(C)=CCC[C@]1(C)/C=C/[C@@H](OC(=O)C=C(C)C)[C@](C)(O)/C=C/C(=O)/C(CN2CCOCC2)=C\C1 |  |  |  | 
13 | 5.53 | 5.45 | 5.46 | 5.49 | 5.54 | CC(C)=CCC[C@]1(C)/C=C/[C@@H](OC(=O)C=C(C)C)[C@](C)(O)/C=C/C(=O)/C(Cn2cc(CO)nn2)=C\C1 |  |  |  | 
14 | 5.63 | 6.14 | 6.24 | 6.62 | 5.84 | CC(C)=CCC[C@]1(C)/C=C/[C@@H](OC(=O)C=C(C)C)[C@](C)(O)/C=C/C(O)/C(C=O)=C\C1 (stereo not given in full) |  |  |  | 
15 | 4.78 | 5.03 | 5.38 | 5.39 | 4.84 | COC/C1=C/C[C@](C)(CCC=C(C)C)/C=C/[C@@H](OC(=O)C=C(C)C)[C@](C)(OC)/C=C/C1=O |  |  |  | 
16 | 4.48 | 4.41 | 4.95 | 4.86 | 4.89 | CO[C@@H]1/C=C/[C@@](C)(O)[C@H](OC(=O)C=C(C)C)/C=C/[C@@](C)(CCC=C(C)C)C/C=C\1CO |  |  |  | 
